Results from patent US8664249B2, “Tetrasubstituted benzenes” (EnVivo Pharmaceuticals, Inc., priority 2007, dated 2014).

Assays:
[1] = test system: Aβ; test: In vivo Aβ lowering in C57BL/6 mice (FIG. 1); design: species or system mouse; settings: one dose at 30 mg/kg in Solutol HS 15:Ethanol:Water (15:10:75), Aβ measured at 3 hours
Excerpt: Practitioners will also know that similar methods can also be applied to other species such as mice (including transgenic strains such as Tg2576), guinea pig, dog and monkey.

[2] = target: γ-secretase (Homo sapiens, UniProt P49768); test: Aβ42 lowering in HEK-293 cells overexpressing APP (ELISA of conditioned medium); assay type: cell-based
Description: Transfected cells overexpressing β-APP or its equivalent producing the Aβ peptide can be used to monitor the effects of synthetic compounds on the production of Aβ.
To analyze a compound's effects on the concentrations of the various products of the γ-secretase cleavage activity, the Aβ peptides, various methods known to a person skilled in the art are available.
Cells were grown to approximately 70-80% confluency subsequent to the addition of test compounds. The growth media was aspirated or removed, the cells washed, and replaced with 100 μl of compound, appropriately diluted in serum free media. The plates are then incubated for 16-18 hours at 37° C.
Conditioned Medium samples are removed for analysis/quantitation of the various Aβ peptide levels by differential ELISA's as described in accompanying instructions to the kits.

SMILES	melting point [°C]	also measured
CC(C)CC(C(=O)O)c1cc(Cl)c(-c2ccc(Cl)c(Cl)c2)c(OCC2CC2)c1 (centres unmarked) [Example 3201, 4-Methyl-2-(2,3′,4′-trichloro-6-cyclopropylmethoxy-biphenyl-4-yl)-pentanoic acid]	118 to 119	
CC(C)CC(C(=O)O)c1cc(Cl)c(-c2ccc(Cl)cc2)c(OCC2CC2)c1 (centres unmarked) [Example 3200, 2-(2,4′-Dichloro-6-cyclopropylmethoxy-biphenyl-4-yl)-4-methyl-pentanoic acid]	52 to 53	
CC(C)CC(C(=O)O)c1cc(OCC2CC2)c(-c2ccc3nonc3c2)cc1F (centres unmarked) [Example 754, 2-(4-(benzo[c][1,2,5]oxadiazol-5-yl)-5-(cyclopropylmethoxy)-2-fluorophenyl)-4-methylpentanoic acid]	110 to 111	
CC(C)CC(C(=O)O)c1cc(OCC2CC2)c(-c2ccc(C(F)(F)F)cc2)cc1F (centres unmarked) [Example 724, 2-(2-cyclopropylmethoxy-5-fluoro-4′-trifluoromethyl-biphenyl-4-yl)-4-methyl-pentanoic acid]	110 to 111	
CC(C)CC(C(=O)O)c1cc(-c2ccc(C(F)(F)F)cc2)c(OCC2CC2)c(C(F)(F)F)c1 (centres unmarked) [Example 1055, 2-(6-Cyclopropylmethoxy-5,4′-bis-trifluoromethyl-biphenyl-3-yl)-4-methyl-pentanoic Acid]	148 to 149	
CC(C)c1ccc(-c2cc(C(CC3CC3)C(=O)O)cc(Cl)c2OCC(F)(F)F)cc1 (centres unmarked) [Example 1301, 2-(5-chloro-4′-isopropyl-6-(2,2,2-trifluoroethoxy)biphenyl-3-yl)-3-cyclopropylpropanoic acid]		effect on Aβ after administration [1]: desirable effect on Aβ
CC(C)CC(C(=O)O)c1cc(Cl)c(-c2ccc(C(F)(F)F)cc2)c(OCC2CC2)c1 (centres unmarked) [Example 1904, 2-(2-Chloro-6-cyclopropylmethoxy-4′-trifluoromethyl-biphenyl-4-yl)-4-methyl-pentanoic acid]	115 to 116	
O=C(O)C1(c2cc(Cl)c(-c3ccc(C(F)(F)F)cc3)c(OCC(F)(F)F)c2)CCCC1 [Example 1837, 1-(2-chloro-6-(2,2,2-trifluoroethoxy)-4′-(trifluoromethyl)biphenyl-4-yl)cyclopentanecarboxylic acid]		EC50 [2]: < 1000 nM
